Laboratory results taken from ChEMBL document CHEMBL3784984, “Cyclolinopeptides, cyclic peptides from flaxseed with osteoclast differentiation inhibitory activity” (Bioorg Med Chem Lett, 2016).
Non-standard residues stand in square brackets, D forms with d. Residues, ends and D or L forms follow the SMILES beside them. Met(O) = CS(=O)CC[C@H](N)C(=O)O

How the values were obtained:
[1] = test system: Bone marrow cell; test: Inhibition of RANKL-induced osteoclast differentiation in ICR mouse bone marrow cells after 48 hrs by TRAP assay; type: functional, cell-based
[2] = Cytotoxicity against ICR mouse bone marrow cells assessed as cell viability after 24 hrs by MTT assay; type: cell-based

IC50 [1] | SMILES | Activity [2]
5.53 µM | CC[C@H](C)[C@@H]1NC(=O)[C@H](C(C)C)NC(=O)[C@H](Cc2ccccc2)NC(=O)[C@H](Cc2ccccc2)NC(=O)[C@@H]2CCCN2C(=O)[C@@H]2CCCN2C(=O)[C@H]([C@@H](C)CC)NC(=O)[C@H](CC(C)C)NC(=O)[C@H](CCSC)NC1=O (cyclo(FFVIMLIPP)) | Non-toxic
14.9 µM | CC[C@H](C)[C@@H]1NC(=O)[C@H](C(C)C)NC(=O)[C@H](Cc2ccccc2)NC(=O)[C@H](Cc2ccccc2)NC(=O)[C@@H]2CCCN2C(=O)[C@@H]2CCCN2C(=O)[C@H]([C@@H](C)CC)NC(=O)[C@H](CC(C)C)NC(=O)[C@H](CC[S+](C)[O-])NC1=O (stereo not given in full) (cyclo(FFVI[Met(O)]LIPP)) | Non-toxic
0.49 µM | CC[C@H](C)[C@@H]1NC(=O)[C@H](Cc2c[nH]c3ccccc23)NC(=O)[C@H](Cc2ccccc2)NC(=O)[C@H](Cc2ccccc2)NC(=O)[C@@H]2CCCN2C(=O)[C@H](CCSC)NC(=O)[C@H](CC(C)C)NC(=O)[C@H](CCSC)NC1=O (cyclo(FFWIMLMP)) | Non-toxic
4.67 µM | CC[C@H](C)[C@@H]1NC(=O)[C@H](Cc2c[nH]c3ccccc23)NC(=O)[C@H](Cc2ccccc2)NC(=O)[C@H](Cc2ccccc2)NC(=O)[C@@H]2CCCN2C(=O)[C@H](CC[S+](C)[O-])NC(=O)[C@H](CC(C)C)NC(=O)[C@H](CCSC)NC1=O (stereo not given in full) (cyclo(FFWIML[Met(O)]P)) | Non-toxic
3.86 µM | CC[C@H](C)[C@@H]1NC(=O)[C@H](Cc2c[nH]c3ccccc23)NC(=O)[C@H](Cc2ccccc2)NC(=O)[C@H](Cc2ccccc2)NC(=O)[C@@H]2CCCN2C(=O)[C@H](CC(C)C)NC(=O)[C@H](CC(C)C)NC(=O)[C@H](CC[S+](C)[O-])NC1=O (stereo not given in full) (cyclo(FFWI[Met(O)]LLP)) | Non-toxic
0.83 µM | CC[C@H](C)[C@@H]1NC(=O)[C@H](Cc2c[nH]c3ccccc23)NC(=O)[C@H](Cc2ccccc2)NC(=O)[C@H](Cc2ccccc2)NC(=O)[C@@H]2CCCN2C(=O)[C@H](CCSC)NC(=O)[C@H](CC(C)C)NC(=O)[C@H](CC[S+](C)[O-])NC1=O (stereo not given in full) (cyclo(FFWI[Met(O)]LMP)) | Non-toxic
4.04 µM | CC[C@H](C)[C@@H]1NC(=O)[C@H](Cc2c[nH]c3ccccc23)NC(=O)[C@H](Cc2ccccc2)NC(=O)[C@H](Cc2ccccc2)NC(=O)[C@@H]2CCCN2C(=O)[C@H](CC[S+](C)[O-])NC(=O)[C@H](CC(C)C)NC(=O)[C@H](CC[S+](C)[O-])NC1=O (stereo not given in full) (cyclo(FFWI[Met(O)]L[Met(O)]P)) | Non-toxic
0.6 µM | CSCC[C@@H]1NC(=O)[C@H](C(C)C)NC(=O)[C@H](Cc2c[nH]c3ccccc23)NC(=O)[C@H](Cc2ccccc2)NC(=O)[C@H](Cc2ccccc2)NC(=O)[C@@H]2CCCN2C(=O)[C@H](CCSC)NC(=O)[C@H](CC(C)C)NC1=O (cyclo(FFWVMLMP)) | Non-toxic
0.47 µM | CSCC[C@@H]1NC(=O)[C@H](C(C)C)NC(=O)[C@H](Cc2c[nH]c3ccccc23)NC(=O)[C@H](Cc2ccccc2)NC(=O)[C@H](Cc2ccccc2)NC(=O)[C@@H]2CCCN2C(=O)[C@H](CC[S+](C)[O-])NC(=O)[C@H](CC(C)C)NC1=O (stereo not given in full) (cyclo(FFWVML[Met(O)]P)) | Non-toxic
0.59 µM | CSCC[C@@H]1NC(=O)[C@H](CC(C)C)NC(=O)[C@H](CC[S+](C)[O-])NC(=O)[C@H](C(C)C)NC(=O)[C@H](Cc2c[nH]c3ccccc23)NC(=O)[C@H](Cc2ccccc2)NC(=O)[C@H](Cc2ccccc2)NC(=O)[C@@H]2CCCN2C1=O (stereo not given in full) (cyclo(FFWV[Met(O)]LMP)) | Non-toxic
0.58 µM | CC(C)C[C@@H]1NC(=O)[C@H](CC[S+](C)[O-])NC(=O)[C@H](C(C)C)NC(=O)[C@H](Cc2c[nH]c3ccccc23)NC(=O)[C@H](Cc2ccccc2)NC(=O)[C@H](Cc2ccccc2)NC(=O)[C@@H]2CCCN2C(=O)[C@H](CC[S+](C)[O-])NC1=O (stereo not given in full) (cyclo(FFWV[Met(O)]L[Met(O)]P)) | Non-toxic
15.3 µM | CC[C@H](C)[C@@H]1NC(=O)[C@H](Cc2ccccc2)NC(=O)[C@H](CC(C)C)NC(=O)[C@@H]2CCCN2C(=O)[C@H](Cc2ccccc2)NC(=O)[C@H](C(C)C)NC(=O)[C@H](CC(C)C)NC(=O)[C@H](CCSC)NC1=O (cyclo(FIMLVFPL)) | Non-toxic
> 20 µM | CC[C@H](C)[C@@H]1NC(=O)[C@H](Cc2ccccc2)NC(=O)[C@H](CC(C)C)NC(=O)[C@@H]2CCCN2C(=O)[C@H](Cc2ccccc2)NC(=O)[C@H](C(C)C)NC(=O)[C@H](CC(C)C)NC(=O)[C@H](CC[S+](C)[O-])NC1=O (stereo not given in full) (cyclo(FI[Met(O)]LVFPL)) | Non-toxic
7.5 µM | COc1cc(/C=C/C(=O)CC(=O)/C=C/c2ccc(O)c(OC)c2)ccc1O [CURCUMIN] | –
12.2 µM | CC[C@H](C)[C@@H]1NC(=O)[C@H](CC(C)C)NC(=O)[C@H](Cc2ccccc2)NC(=O)[C@H](Cc2ccccc2)NC(=O)[C@@H]2CCCN2C(=O)[C@@H]2CCCN2C(=O)[C@H](C(C)C)NC(=O)[C@H](CC(C)C)NC(=O)[C@H]([C@@H](C)CC)NC1=O [CYCLOLINOPEPTIDE A] (cyclo(FFLIILVPP)) | Non-toxic
17.2 µM | CC(C)Oc1ccc2c(=O)c(-c3ccccc3)coc2c1 [IPRIFLAVONE] | –
